# Target: EXOSC3 (GST-EXOSC3, EXOSC3-WT) (Homo sapiens, UniProt Q9NQT5)
# Experiment: MST, inhibition of RNA binding
# Conditions: 3.12 μM long G-rich RNA (GGGAGGGAGGGAGAGGGA)
# Sequence of EXOSC3 (GST-EXOSC3, EXOSC3-WT) (Q9NQT5 whole entry): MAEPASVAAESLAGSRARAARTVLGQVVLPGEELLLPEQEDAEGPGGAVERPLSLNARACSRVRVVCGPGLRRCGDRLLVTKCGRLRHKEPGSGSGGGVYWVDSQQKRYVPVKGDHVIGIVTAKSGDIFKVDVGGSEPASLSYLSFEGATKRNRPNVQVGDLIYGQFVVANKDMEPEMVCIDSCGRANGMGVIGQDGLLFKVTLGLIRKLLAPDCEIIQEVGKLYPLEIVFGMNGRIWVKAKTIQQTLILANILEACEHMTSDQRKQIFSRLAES
smiles,measurement,value
"CC(C)(O)CCc1cccc(C(=O)N2Cc3ccccc3C(O)C2)c1 (stereo not shown) [ERD03, EXOSC3-RNA disrupting (ERD) compound 3]",% inhibition at 50 μM,54 ± 10%

# Reference: publication PMC6504997 (ACS chemical biology, 2018)
